Patent US20260107957A1, “USE OF AN EMULSIFIER DERIVED FROM RICINOLEIC ACID TO INCREASE THE ABSORPTION OF CALCIUM AND PHOSPHORUS IN THE DIGESTIVE TRACT OF FARM ANIMALS” (priority 2023, published 2026)

Test system: laying hens
Experiment: Assessment of shell quality in laying hen farms
Type: in vivo
Details: egg production
Experimental: In order to assess the effect of the use of the nutritional supplement on the calcium and phosphorus absorption in laying hens, several studies on laying hens from different farms were carried out. The studies comprised the analysis of animals before and after the feed with the formulation containing the nutritional supplement comprising ingredients shown in Table 3.
More specifically, an assessment of the shell quality in laying hens was conducted by collecting the eggs before and after feeding the animals with the formulation containing the nutritional supplement. Hens from farms in the states of Espírito Santo (350,000 hens), São Paulo (2,000,000 hens), Paraná (1,100,000 hens), and Minas Gerais ([…]) were fed with a pair of feed formulas, one without and another one with the nutritional supplement of the present invention.
Laid eggs were collected after feeding the hens with regular feed and later with the feed containing the emulsifier of the present invention. Data obtained from the analysis of the eggs from the farms in Espírito Santo, São Paulo, Paraná, and Minas Gerais are included in Tables 6 to 9 below, the beneficial effects on the shells being emphasized thereof, among them the reduction in cracks in chicken eggs.

## CCCCCC[C@@H](O)C/C=C\CCCCCCCC(=O)[O-].[Na+] [emulsifier derived from ricinoleic acid, Sodium Ricinolate]
  increase of the amount of saleable eggs: up to 5%
Usual loss up to 7%
  eggs produced daily lost by shell problems: below 2%
